Test results reported in US20060069132A1, “Azolecarboxamide herbicides” (priority 2004, published 2006).

What was measured:
lambsquarters = assay: Test B pre-/postemergence herbicide test; type: in vivo, Chenopodium album
Method in brief: (§1)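 Seeds were planted and treated preemergence with compounds formulated in a non-phytotoxic solvent mixture containing surfactant, while plants at the 1- to 4-leaf stage (2 to 18 cm) received postemergence sprays. Flooded paddy plants were grown to the 2-leaf stage. After 13 to 15 days in a greenhouse, injury was visually rated 0–100 against untreated controls.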

wild oat = assay: Test B postemergence herbicide test; type: in vivo, Avena fatua
Method in brief: (§2)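 Treated at 2-leaf (paddy) or 1–4-leaf, 2–18 cm (postemergence); greenhouse 13–15 d; visual score vs control, 0 none to 100 complete control; dash = not tested.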

ducksalad = assay: Test B flooded paddy test; type: in vivo, Heteranthera limosa; conditions: 1000 g ai/ha, scale 0 to 100 (0 no effect, 100 complete control)
Method in brief: (§3)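 Visual ratings, 0 (no effect) to 100 (complete control), made versus controls after 13–15 d greenhouse. Paddy plants treated at 2-leaf stage; postemergence plants at 1- to 4-leaf stage, 2–18 cm tall.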

rice = assay: Test B flooded paddy test; type: in vivo, Oryza sativa; conditions: 1000 g ai/ha, scale 0 to 100 (0 no effect, 100 complete control)
Method in brief: as §3

barnyardgrass [1] = assay: Test B flooded paddy test; type: in vivo, Echinochloa crus-galli; conditions: 1000 g ai/ha, scale 0 to 100 (0 no effect, 100 complete control)
Method in brief: as §3

giant foxtail = assay: Test B pre-/postemergence herbicide test; type: in vivo, Setaria faberi
Method in brief: as §1

pigweed = assay: Test B pre-/postemergence herbicide test; type: in vivo, Amaranthus retroflexus
Method in brief: as §1

Surinam grass = assay: Test B pre-/postemergence herbicide test; type: in vivo, Urochloa decumbens
Method in brief: as §1

morningglory = assay: Test B pre-/postemergence herbicide test; type: in vivo, Ipomoea coccinea
Method in brief: (§4)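 Visual rating, 0 (no effect) to 100 (complete control), versus untreated controls after 13–15 d in greenhouse. Pre- and postemergence applications (postemergence plants 2–18 cm, 1–4 leaves); flooded paddy arm at 2-leaf stage. Compounds in non-phytotoxic solvent plus surfactant.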

cocklebur = assay: Test B pre-/postemergence herbicide test; type: in vivo, Xanthium strumarium
Method in brief: as §4

[2] = tested on: small flower umbrella sedge; assay: Test B flooded paddy test; type: in vivo, Cyperus difformis; conditions: 1000 g ai/ha, scale 0 to 100 (0 no effect, 100 complete control)
Method in brief: as §3

large crabgrass = assay: Test B pre-/postemergence herbicide test; type: in vivo, Digitaria sanguinalis
Method in brief: as §1

velvetleaf = assay: Test B pre-/postemergence herbicide test; type: in vivo, Abutilon theophrasti
Method in brief: as §1

wheat = assay: Test B postemergence herbicide test; type: in vivo, Triticum aestivum; design: key to Wheat plant response rating: 0 = no effect, 100 = complete control
Method in brief: as §2

barnyardgrass [3] = assay: Test B pre-/postemergence herbicide test; type: in vivo, Echinochloa crus-galli; conditions: for Barnyardgrass plant response rating: scale 0 (no effect) to 100 (complete control)
Method in brief: as §4

[4] = 125 g ai/ha, 0 is no effect, 100 is complete control, preemergence
[5] = Postemergence, 500 g ai/ha, scale 0 (no effect) to 100 (complete control)
[6] = postemergence, 125 g ai/ha, scale 0 to 100
[7] = 500 g ai/ha, visual rating 0-100, 0 no effect, 100 complete control, preemergence
[8] = postemergence, 125 g ai/ha, visual rating, scale 0 (no effect) to 100 (complete control)
[9] = postemergence, 500 g ai/ha, visual rating, scale 0 (no effect) to 100 (complete control)
[10] = preemergence, 125 g ai/ha, 0 to 100 scale, 0 is no effect, 100 is complete control
[11] = postemergence, 125 g ai/ha, visual rating
[12] = postemergence, 500 g ai/ha, visual rating
[13] = 125 g ai/ha, 0 = no effect, 100 = complete control, preemergence
[14] = 500 g ai/ha, visual rating, 0 = no effect, 100 = complete control, preemergence
[15] = postemergence, 500 g ai/ha, scale 0 to 100, 0 is no effect, 100 is complete control

C=CCOc1cccc(NC(=O)c2cc(C(C)(C)C)nn2CC)c1 [Compound 412]
Plant response rating (0 to 100 scale), Lambsquarters (lambsquarters; [4]): 0
Lambsquarters plant response rating (lambsquarters; [5]): 100
Lambsquarters plant response rating (lambsquarters; [6]): 60
Oat, Wild plant response rating (wild oat; [5]): 40
Oat, Wild plant response rating (wild oat; [6]): 30
Ducksalad plant response rating (ducksalad): 80
Rice plant response rating (rice): 40
Barnyardgrass plant response rating (barnyardgrass [1]): 40
Plant response rating (0 to 100 scale), Foxtail, Giant (giant foxtail; [4]): 30
Foxtail, Giant plant response rating (giant foxtail; [5]): 30
Foxtail, Giant plant response rating (giant foxtail; [6]): 30
Plant response rating (0 to 100 scale), Pigweed (pigweed; [4]): 50
Pigweed plant response rating (pigweed; [5]): 100
Pigweed plant response rating (pigweed; [6]): 90
Plant response rating (0 to 100 scale), Surinam Grass (Surinam grass; [4]): 0
Surinam Grass plant response rating (Surinam grass; [5]): 30
Surinam Grass plant response rating (Surinam grass; [6]): 0
Plant response rating (0 to 100 scale), Morningglory (morningglory; [4]): 0
Morningglory plant response rating (morningglory; [5]): 0
Morningglory plant response rating (morningglory; [6]): 0
Plant response rating (0 to 100 scale), Cocklebur (cocklebur; [4]): 0
Cocklebur plant response rating (cocklebur; [5]): 30
Cocklebur plant response rating (cocklebur; [6]): 0
Sedge, Umbrella plant response rating [2]: 90
Plant response rating (0 to 100 scale), Crabgrass, Large (large crabgrass; [4]): 50
Crabgrass, Large plant response rating (large crabgrass; [5]): 30
Crabgrass, Large plant response rating (large crabgrass; [6]): 0
Plant response rating (0 to 100 scale), Velvetleaf (velvetleaf; [4]): 0
Velvetleaf plant response rating (velvetleaf; [5]): 10
Velvetleaf plant response rating (velvetleaf; [6]): 0
Wheat plant response rating (wheat; 500 g ai/ha, scale 0 to 100, 0 no effect, 100 complete control, preemergence): 20
Wheat plant response rating (wheat; [5]): 20
Wheat plant response rating (wheat; [6]): 10
Plant response rating (0 to 100 scale), Barnyardgrass (barnyardgrass [3]; [4]): 40
Barnyardgrass plant response rating (barnyardgrass [3]; Postemergence, 125 g ai/ha): 0
Barnyardgrass plant response rating (barnyardgrass [3]; Postemergence, 500 g ai/ha): 0

CCNC(=O)c1cc(C)nc(NC(=O)c2cc(C(C)(C)C)nn2CC)c1 [Compound 149]
Plant response rating, Lambsquarters (lambsquarters; [7]): 100
Lambsquarters plant response rating (lambsquarters; [8]): 20
Lambsquarters plant response rating (lambsquarters; [9]): 60
Plant response rating, Lambsquarters (lambsquarters; [10]): 60
Oat, Wild plant response rating (wild oat; [8]): 10
Oat, Wild plant response rating (wild oat; [9]): 30
Ducksalad plant response rating (ducksalad; visual rating, 13 to 15 days): 90
Rice plant response rating (rice; visual rating, 13 to 15 days): 50
Barnyardgrass plant response rating (barnyardgrass [1]; visual rating, 13 to 15 days): 70
Plant response rating, Foxtail, Giant (giant foxtail; [7]): 100
Foxtail, Giant plant response rating (giant foxtail; [8]): 10
Foxtail, Giant plant response rating (giant foxtail; [9]): 10
Plant response rating, Foxtail, Giant (giant foxtail; [10]): 60
Plant response rating, Pigweed (pigweed; [7]): 100
Pigweed plant response rating (pigweed; [8]): 50
Pigweed plant response rating (pigweed; [9]): 70
Plant response rating, Pigweed (pigweed; [10]): 100
Plant response rating, Surinam Grass (Surinam grass; [7]): 80
Surinam Grass plant response rating (Surinam grass; [8]): 10
Surinam Grass plant response rating (Surinam grass; [9]): 20
Plant response rating, Surinam Grass (Surinam grass; [10]): 40
Plant response rating, Morningglory (morningglory; [7]): 40
Morningglory plant response rating (morningglory; [8]): 20
Morningglory plant response rating (morningglory; [9]): 40
Plant response rating, Morningglory (morningglory; [10]): 20
Plant response rating, Cocklebur (cocklebur; [7]): 0
Cocklebur plant response rating (cocklebur; [8]): 20
Cocklebur plant response rating (cocklebur; [9]): 100
Plant response rating, Cocklebur (cocklebur; [10]): 0
Sedge, Umbrella plant response rating ([2]; visual rating, 13 to 15 days): 60
Plant response rating, Crabgrass, Large (large crabgrass; [7]): 100
Crabgrass, Large plant response rating (large crabgrass; [8]): 10
Crabgrass, Large plant response rating (large crabgrass; [9]): 30
Plant response rating, Crabgrass, Large (large crabgrass; [10]): 90
Plant response rating, Velvetleaf (velvetleaf; [7]): 40
Velvetleaf plant response rating (velvetleaf; [8]): 10
Velvetleaf plant response rating (velvetleaf; [9]): 50
Plant response rating, Velvetleaf (velvetleaf; [10]): 0
Wheat plant response rating (wheat; [9]): 10
Plant response rating, Barnyardgrass (barnyardgrass [3]; [7]): 90
Barnyardgrass plant response rating (barnyardgrass [3]; [11]): 0
Barnyardgrass plant response rating (barnyardgrass [3]; [12]): 30
Plant response rating, Barnyardgrass (barnyardgrass [3]; [10]): 80

CCn1nc(C(C)(C)C)cc1C(=O)Nc1cc(C(=O)N2CCCC2)ccc1F [Compound 242]
Lambsquarters plant response rating (0 to 100 scale) (lambsquarters; [13]): 100
Plant response rating, Lambsquarters (lambsquarters; [14]): 100
Lambsquarters plant response rating (lambsquarters; [8]): 90
Lambsquarters plant response rating (lambsquarters; [15]): 90
Oat, Wild plant response rating (wild oat; [8]): 10
Oat, Wild plant response rating (wild oat; [15]): 30
Ducksalad plant response rating (ducksalad): 90
Rice plant response rating (rice): 90
Barnyardgrass plant response rating (barnyardgrass [1]): 90
Foxtail, Giant plant response rating (0 to 100 scale) (giant foxtail; [13]): 80
Plant response rating, Foxtail, Giant (giant foxtail; [14]): 90
Foxtail, Giant plant response rating (giant foxtail; [8]): 20
Foxtail, Giant plant response rating (giant foxtail; [15]): 30
Pigweed plant response rating (0 to 100 scale) (pigweed; [13]): 100
Plant response rating, Pigweed (pigweed; [14]): 100
Pigweed plant response rating (pigweed; [8]): 60
Pigweed plant response rating (pigweed; [15]): 80
Surinam Grass plant response rating (0 to 100 scale) (Surinam grass; [13]): 70
Plant response rating, Surinam Grass (Surinam grass; [14]): 90
Surinam Grass plant response rating (Surinam grass; [8]): 30
Surinam Grass plant response rating (Surinam grass; [15]): 60
Morningglory plant response rating (0 to 100 scale) (morningglory; [13]): 0
Plant response rating, Morningglory (morningglory; [14]): 10
Morningglory plant response rating (morningglory; [8]): 20
Morningglory plant response rating (morningglory; [15]): 40
Cocklebur plant response rating (0 to 100 scale) (cocklebur; [13]): 10
Plant response rating, Cocklebur (cocklebur; [14]): 40
Cocklebur plant response rating (cocklebur; [8]): 40
Cocklebur plant response rating (cocklebur; [9]): 90
Sedge, Umbrella plant response rating [2]: 90
Crabgrass, Large plant response rating (0 to 100 scale) (large crabgrass; [13]): 90
Plant response rating, Crabgrass, Large (large crabgrass; [14]): 100
Crabgrass, Large plant response rating (large crabgrass; [8]): 30
Crabgrass, Large plant response rating (large crabgrass; [15]): 50
Velvetleaf plant response rating (0 to 100 scale) (velvetleaf; [13]): 50
Plant response rating, Velvetleaf (velvetleaf; [14]): 100
Velvetleaf plant response rating (velvetleaf; [8]): 50
Velvetleaf plant response rating (velvetleaf; [15]): 60
Wheat plant response rating (wheat; [8]): 10
Wheat plant response rating (wheat; [15]): 10
Barnyardgrass plant response rating (0 to 100 scale) (barnyardgrass [3]; [13]): 80
Plant response rating, Barnyardgrass (barnyardgrass [3]; [14]): 100
Barnyardgrass plant response rating (barnyardgrass [3]; [11]): 50
Barnyardgrass plant response rating (barnyardgrass [3]; [12]): 60
